System: OVCAR
Assay type: in vivo
Conditions: 21 days, nude mice
Excerpt: For that experiment, a human ovarian cancer cell line, named OVCAR is used, as prior exposed for the CT-26 cells. The only difference is the mice receiving cell injection, because OVACR is a human cancer cell, a nude mice animal is used because of immune deficiency of the animal.

O=C1[O][Pt]2([NH][C@@H]3CCCC[C@H]3[NH]2)[O]C1=O [Oxaliplatin]
Mean PCI (peritoneal cancer index): 3,7

From patent US20190046556A1, “Methods and Pharmaceutical Compositions for the Prophylactic Treatment of Peritoneal Carcinomatosis” (INSERM (Institut National de la Sante et de la Recherche …, priority 2016, published 2019)
